This note sets out measurements from patent US20250228241A1, “P[…] COMPOUND OR SALT THEREOF, PEST CONTROL AGENT CONTAINING SAID COMPOUND AS ACTIVE INGREDIENT, AND PEST CONTROL METHOD” (NIHON NOHYAKU CO., LTD., priority 2021, published 2025).

The structures appear in SMILES notation.

What all share (format): in vivo
Series [1] relates to green peach aphid (Myzus persicae). Kind of series: Control value test against the green peach aphid (foliar spray on Chinese cabbage). Particulars: 500 ppm spray on stems and leaves of Chinese cabbage, 6th day after spray. The text has this: Chinese cabbage was planted in plastic pots with a diameter of 8 cm and a height of 8 cm to breed green peach aphids, and the number of the infesting aphids in each pot was investigated. The present inventive compound was dispersed in water and diluted to a 500 ppm chemical solution, and the chemical solution was sprayed on the stems and leaves of the Chinese cabbage plants planted in the pots. After air drying, the pots were kept in a greenhouse. On the 6th day after the spray of the chemical solution, the number of the green peach aphids infesting on each Chinese cabbage plant was counted and the control value was calculated on the following equation, whereby the effect was judged according to the criterion below.
The Comparative test compound was tested in the same way, and the control value was calculated and judged.
[formula] • Ta: number of infestants before spraying in the treated group, • T: number of infestants after spraying in the treated group, • Ca: number of infestants before spraying in the untreated group, • C: number of infestants after spraying in the untreated group.
• A: Control value 100% • B: Control value 99-90% • C: Control value 89-80% • D: Control value 79-50%

The test system of series [2] is smaller brown planthopper (Laodelphax striatellus). The experiment in a line: Insecticidal test against the smaller brown planthopper (rice seedling immersion). As to conditions: 500 ppm, rice seedling immersed 30 seconds, third instar nymphs, eight days after. The text has this:
The present inventive compound was dispersed in water to adjust the concentration to 500 ppm and a rice seedling was immersed therein for 30 seconds; after air dried, the seedling was put in a test tube, 10 third instar nymphs were inoculated and the test tube was sealed with a cotton plug. Eight days after, the alive and dead insects were counted to calculate the corrected mortality according to the following equation and the insecticidal effect was judged according to the criterion shown below.
(§1) The Comparative test compound was tested in the same way, and the corrected mortality was calculated and judged.
(§2) [formula] • Criterion: A: Corrected mortality 100% • B: Corrected mortality 99%-90% • C: Corrected mortality 89%-80% • D: Corrected mortality 79%-50%

Series [3] relates to diamond back moth (Plutella xylostella). Kind of series: Insecticidal test against the diamond back moth (Chinese cabbage seedling with eggs, immersion). As to conditions: 500 ppm, seedling with eggs immersed about 30 seconds, 25° C., six days after immersion. The method, then:
The adult diamond back moths were released and allowed to oviposit on a Chinese cabbage seedling. Two days after the release, the seedling having the eggs deposited thereon was immersed for about 30 seconds in a liquid chemical prepared by diluting a preparation containing the present inventive compound as an active ingredient to adjust the concentration to 500 ppm. After air dried, it was allowed to stand in a room thermostatted at 25° C. Six days after the immersion, the alive insects were counted. The corrected mortality was calculated according to the following equation and the insecticidal effect was judged according to the criterion shown below. The test was carried out with triplicate groups.
as §1, §2

The subject of series [4] is common cutworm (Spodoptera litura). The experiment in a line: Insecticidal test against the common cutworm (cabbage leaf dip). Particulars: 500 ppm, cabbage leaf dipped about 30 seconds, second-instar larvae, 25° C., eight days after inoculation. The method, then: A piece of cabbage leaf (cultivar; Shikidori) was dipped for about 30 seconds in a chemical solution prepared by diluting a preparation containing the present inventive compound as an active ingredient to adjust the concentration to 500 ppm. After air dried, it was placed in a plastic Petri dish with a diameter of 9 cm and inoculated with second-instar larvae of common cutworm, after which the dish was closed and then allowed to stand in a room thermostatted at 25° C. Eight days after the inoculation, the number of the alive insects were counted. The corrected mortality was calculated according to the following equation and the insecticidal effect was judged according to the following criterion. The test was carried out with triplicate groups of 10 insects.
as §1, §2

The subject of series [5] is Western honeybees (Apis mellifera). Kind of series: Safety test for the Western honeybee (oral acute toxicity test). The method, then:
Seven to ten adult Western honeybees (Apis mellifera) were released in a plastic cage (8 cm×12 cm×20 cm), and after fasting for 2 hours, they were oral administered, using a 1.5 ml microtube, with a 50% sucrose solution as a test bait containing a chemical solution of a predetermined concentration. Four hours after the administration, the test bait was taken out, and the amount of the compound taken per animal was calculated from the remaining amount. At the same time, the animals were fed with a sufficient amount of 50% sucrose solution, maintained at 25° C., H55-75%, 16L8D. The numbers of dead and abnormal insects were counted after 24, 48 and 96 hours to calculate the median lethal dose (LD50 value). The untreated group was fed with a 50% sucrose solution […] and was maintained under the same conditions as the chemical-treated group.

On to `C[C@H](NC(=O)c1cc(C(F)(F)F)cc(C(F)(F)F)c1)c1ncnn1-c1ncccn1` [comparative compound, (S)—N-(1-(1-(pyrimidin-2-yl)-1H-1,2,4-triazol-5-yl)ethyl)-3,5-bis(trifluoromethyl)benzamide, reference compound], for which the “control value (activity class)” value in series [1] is on record as “B or higher”. Also, the “corrected mortality (activity class)” value in series [2], in series [3] and in series [4] was “B or higher” in each case.
Regarding `C[C@H](NC(=O)c1cc(C(F)(F)F)cc(C(F)(F)F)c1)c1ncnn1-c1cc(C(F)(F)F)ncn1` [present inventive compound, (S)—N-(1-(1-(6-trifluoromethylpyrimidin-4-yl)-1H-1,2,4-triazol-5-yl)ethyl)-3,5-bis(trifluoromethyl)benzamide], the “control value (activity class)” value in series [1] is recorded as “B or higher”. The “corrected mortality (activity class)” value in series [2], in series [3] and in series [4] was “B or higher” throughout. Moreover, the “improvement in safety for the Western honeybee compared with the comparative compound” value in series [5] (from oral LD50 values after 96 hours) is “more than 200 times”. In addition, the “LD50 value for one adult honeybee” value in series [5] (oral, after 96 hours, per adult honeybee) came to 2.04 µg.
